Calls of active or inactive are those of the source. No cut-off for these calls is given here.
Experiments:
[1] = Toxicity in mouse xenografted with human NCI-H1417 cells assessed as grooming behaviour at 1.5 mg/kg, po administered daily measured for 30 days; format: organism-based; settings: in vivo, 720 h, time 30 day
[2] = Effect on cleaved PARP level in human NCI-H1417 cells assessed as relative expression at 10 nM measured after 10 days by Western blot analysis (reference value: 0.19); format: functional; settings: time 10 day
[3] = Effect on cleaved PARP level in human NCI-H1417 cells assessed as relative expression at 100 nM measured after 14 days by Western blot analysis (reference value: 0.38); format: functional; settings: time 14 day
[4] = Effect on cleaved PARP level in human NCI-H1417 cells assessed as relative expression at 1000 nM measured after 14 days by Western blot analysis (reference value: 0.38); format: functional; settings: time 14 day
[5] = Effect on cleaved PARP level in human NCI-H1417 cells assessed as fold change at 100 nM measured after 10 days by Western blot analysis (reference value: 1.00); format: functional; settings: time 10 day
[6] = Effect on cleaved PARP level in human NCI-H526 cells assessed as relative expression at 100 nM measured after 10 days by Western blot analysis (reference value: 0.81); format: functional; settings: time 10 day
[7] = Effect on cleaved PARP level in human NCI-H524 cells assessed as relative expression at 100 nM measured after 7 days by Western blot analysis (reference value: 0.63); format: functional; settings: time 7 day
[8] = Effect on cleaved PARP level in human NCI-H524 cells assessed as fold change at 100 nM measured after 7 days by Western blot analysis (reference value: 1.00); format: functional; settings: time 7 day
[9] = Effect on cleaved PARP level in human NCI-H524 cells assessed as fold change at 10 nM measured after 14 days by Western blot analysis (reference value: 1.00); format: functional; settings: time 14 day
[10] = Effect on cleaved PARP level in human COLO-668 cells assessed as fold change at 1000 nM measured after 7 days by Western blot analysis (reference value: 1.00); format: functional; settings: time 7 day
[11] = Effect on cleaved PARP level in human NCI-H1694 cells assessed as relative expression at 100 nM measured after 10 days by Western blot analysis (reference value: 0.31); format: functional; settings: time 10 day
[12] = Effect on cleaved PARP level in human NCI-H1694 cells assessed as fold change at 10 nM measured after 7 days by Western blot analysis (reference value: 1.00); format: functional; settings: time 7 day
[13] = Effect on cleaved PARP level in human NCI-H1694 cells assessed as fold change at 100 nM measured after 10 days by Western blot analysis (reference value: 1.00); format: functional; settings: time 10 day
[14] = Effect on cleaved PARP level in human NCI-H69 cells assessed as relative expression at 100 nM measured after 7 days by Western blot analysis (reference value: 0.02); format: functional; settings: time 7 day
[15] = Effect on cleaved PARP level in human NCI-H510 cells assessed as relative expression at 1000 nM measured after 7 days by Western blot analysis (reference value: 0.24); format: functional, NCI-H510A; settings: time 7 day
[16] = Effect on cleaved PARP level in human NCI-H510 cells assessed as relative expression at 1000 nM measured after 10 days by Western blot analysis (reference value: 0.02); format: functional, NCI-H510A; settings: time 10 day
[17] = Effect on cleaved PARP level in human NCI-H510 cells assessed as fold change at 1000 nM measured after 14 days by Western blot analysis (reference value: 1.00); format: functional, NCI-H510A; settings: time 14 day
[18] = Effect on cleaved PARP level in human NCI-H889 cells assessed as relative expression at 10 nM measured after 7 days by Western blot analysis (reference value: 0.34); format: functional; settings: time 7 day
[19] = Effect on cleaved PARP level in human NCI-H889 cells assessed as relative expression at 100 nM measured after 7 days by Western blot analysis (reference value: 0.34); format: functional; settings: time 7 day
[20] = Effect on cleaved PARP level in human NCI-H889 cells assessed as relative expression at 10 nM measured after 10 days by Western blot analysis (reference value: 0.33); format: functional; settings: time 10 day
[21] = Effect on cleaved PARP level in human NCI-H889 cells assessed as relative expression at 100 nM measured after 10 days by Western blot analysis (reference value: 0.33); format: functional; settings: time 10 day
[22] = Effect on cleaved PARP level in human NCI-H889 cells assessed as fold change at 1000 nM measured after 14 days by Western blot analysis (reference value: 1.00); format: functional; settings: time 14 day
[23] = Effect on cleaved PARP level in human NCI-H2171 cells assessed as relative expression at 100 nM measured after 14 days by Western blot analysis (reference value: 0.01); format: functional; settings: time 14 day
[24] = Effect on cleaved PARP level in human NCI-H146 cells assessed as fold change at 10 nM measured after 7 days by Western blot analysis (reference value: 1.00); format: functional; settings: time 7 day
[25] = Effect on cleaved PARP level in human NCI-H146 cells assessed as fold change at 100 nM measured after 7 days by Western blot analysis (reference value: 1.00); format: functional; settings: time 7 day
[26] = Effect on cleaved PARP level in human NCI-H146 cells assessed as fold change at 1000 nM measured after 7 days by Western blot analysis (reference value: 1.00); format: functional; settings: time 7 day
[27] = Effect on cleaved PARP level in human NCI-H146 cells assessed as fold change at 100 nM measured after 14 days by Western blot analysis (reference value: 1.00); format: functional; settings: time 14 day
[28] = Toxicity in dog assessed as declining clinical condition measured for 28 days; design: species or system Canis lupus familiaris; settings: in vivo, 672 h, time 28 day
NCI-H69 [29] = assay: Antitumor activity against human NCI-H69 cells xenografted in nude mouse assessed as mean tumor volume at 1.5 mg/kg, po administered daily measured twice weekly (reference value: 1063 +/- 161 mm3); format: functional
NCI-H69 [30] = assay: Antitumor activity against human NCI-H69 cells xenografted in nude mouse assessed as tumor growth inhibition at 1.5 mg/kg, po administered daily measured twice weekly relative to control; format: functional; settings: read-out: TGI
NCI-H526 [31] = assay: Effect on NSE gene expression in human NCI-H526 cells at 1 uM measured after 4 to 7 days by qRT-PCR analysis; format: functional, cell-based; settings: time 4-7 day
COLO-668 = assay: Effect on NSE gene expression in human COLO-668 cells at 1 uM measured after 4 to 7 days by qRT-PCR analysis; format: functional, cell-based; settings: time 4-7 day
NCI-H526 [32] = assay: Effect on genomic redistribution of LSD1 to new sites in human NCI-H526 cells at 1 uM; format: functional, cell-based
[33] = Antitumor activity against human PDX L48 cells xenografted in mouse assessed as tumor growth inhibition at 1.5 mg/kg administered daily measured for 16 days relative to control; format: functional; settings: PDX LX48, 384 h, time 16 day, read-out: TGI
D-amino-acid oxidase = D-amino-acid oxidase (Homo sapiens, UniProt P14920)
D-amino-acid oxidase, sequence (P14920 whole entry, looked up): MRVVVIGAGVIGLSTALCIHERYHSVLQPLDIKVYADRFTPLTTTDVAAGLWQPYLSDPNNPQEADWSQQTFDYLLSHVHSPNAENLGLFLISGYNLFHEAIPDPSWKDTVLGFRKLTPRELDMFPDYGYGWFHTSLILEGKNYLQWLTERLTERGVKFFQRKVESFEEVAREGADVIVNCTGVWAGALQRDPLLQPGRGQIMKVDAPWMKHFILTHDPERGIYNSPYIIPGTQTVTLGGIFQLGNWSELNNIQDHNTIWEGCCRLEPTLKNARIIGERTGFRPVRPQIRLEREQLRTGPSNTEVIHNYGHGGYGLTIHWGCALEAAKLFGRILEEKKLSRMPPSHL
Description: Binding affinity to D-amino acid oxidase (unknown origin) assessed as inactivation constant

[34] = Inhibition of GABA-A receptor (unknown origin); design: species or system Homo sapiens
[35] = Half life in mouse at 5.5 mg/kg, ip by HPLC/MS/MS analysis; format: ADME, organism-based; settings: in vivo

Compound: O=C(O)c1ccc(CN2CCC(CN[C@@H]3C[C@H]3c3ccccc3)CC2)cc1 [GSK2879552]
- Activity [1]: Non-Toxic
- Activity [2]: 0.27
- Activity [3]: 0.32
- Activity [4]: 0.42
- fold change (FC) [5]: 2.14
- Activity [6]: 0.94
- Activity [7]: 0.6
- fold change (FC) [8]: 0.95
- fold change (FC) [9]: 0.79
- fold change (FC) [10]: 0.95
- Activity [11]: 0.23
- fold change (FC) [12]: 1.22
- fold change (FC) [13]: 0.75
- Activity [14]: 0.03
- Activity [15]: 0.48
- Activity [16]: 0.23
- fold change (FC) [17]: 2.61
- Activity [18]: 0.03
- Activity [19]: 0.43
- Activity [20]: 0.55
- Activity [21]: 0.74
- fold change (FC) [22]: 2.82
- Activity [23]: 0.02
- fold change (FC) [24]: 1.09
- fold change (FC) [25]: 1.02
- fold change (FC) [26]: 1.12
- fold change (FC) [27]: 0.45
- Activity [28]: Toxic
- Activity (NCI-H69 [29]): 610 mm3
- inhibition in vivo at 1.5 mg/kg (NCI-H69 [30]): 49%
- Activity (NCI-H526 [31]): inactive
- Activity (COLO-668): inactive
- Activity (NCI-H526 [32]): inactive
- inhibition in vivo at 1.5 mg/kg [33]: 74%
- Kinact (D-amino-acid oxidase): 0.12 min⁻¹

Compound: c1ccc([C@@H]2C[C@H]2NC2CCNCC2)cc1
- IC50 [34]: > 100 µM
- half-life [35]: 3.6 h

Source: ChEMBL document CHEMBL5705903, “A DNA Hypomethylation Signature Predicts Antitumor Activity of LSD1 Inhibitors in SCLC” (Cancer Cell, 2015)
